These results are taken from US20250332180A1, “CANNABINOIDS AND IL-15 ACTIVATE NK CELLS” (The Regents of the University of California, priority 2022, published 2025).

Data set [1] deals with MP2 tumor cells. Description: Cell death assay (PI staining, flow cytometry). The class given is cell-based, human. The following applies: 25-100 μM, 24-48 hours. As for the experimental part:
PI staining was used to determine the cell death by flow cytometry. One of two representative experiments is shown in (FIG. 4A) and the compiled data of paired MP2 and PL-12 at the same concentration of WIN 55,212-2 treatment is shown in (FIG. 4B). […] Two experiments were compiled and the % cell death of various WIN 55-212,2 concentration (10, 25, 50 and 100 μM) was compared to the untreated control for both PL12 (FIG. 4C) and MP2 (FIG. 4D). […] Non-linear regression was used to fit the curve of the % cell death induced by WIN 55-212,2 in various concentrations (10, 25, 50 and 100 μM) for both PL12 and MP2 (FIG. 4E).
PI staining was used to determine the cell death by flow cytometry. Compiled data from two experiments is shown.
Background: A flow cytometer gives signals particle by particle.

Data set [2] concerns OSCCs. Description: Cell count of viable cells (Trypan Blue, light microscope). Format: cell-based, human. The following applies: WIN 55,212-2 10-100 μM, 24 hours. The source says:
The number of viable cells was counted under light microscope using Trypan Blue staining. Compiled data from three independent experiments performed as shown.
(§1) The number of viable cells was counted under light microscope using Trypan Blue staining (Sigma, MO, USA).

The subject of data set [3] is MP2 tumor cells.
The subject of data set [4] is OSCCs. Description: Microscopy of morphology and viability. The class given is cell-based, human. As for the experimental part: (§2) Chemical structure of WIN 55,212-2 (FIG. 7A). […] OSCCs and OSCSCs were treated with CDDP (50 μg/mL) and different concentrations of WIN 55,212-2 for 24 hours before the microscopic images were taken. Scale bar=50 μm (FIG. 7B).
The next data set has as its system OSCSCs. In words: Microscopy of morphology and viability. Format: cell-based, human. The following applies: WIN 55,212-2, even at the lowest concentrations, 24 h. The protocol:
as §2

The subject of data set [5] is MP2 tumor cells. In words: Microscopy of morphology and viability. The class given is cell-based, human. The following applies: different concentrations of WIN 55,212-2, 24 hours. As for the experimental part:
(§3) MP2 and PL-12 tumor cells were treated with CDDP (50 μg/mL) and different concentrations of WIN 55,212-2 for 24 hours before the microscopic images were taken. Scale bar=50 μm.

Data set [6] deals with PL-12 tumor cells. In words: Microscopy of morphology and viability. The class given is cell-based, human. The following applies: different concentrations of WIN 55,212-2, 24 hours. The protocol: as §3
The subject of another data set is IFN-γ secretion. In words: IFN-γ secretion of immune cells in humanized BLT mice (ELISA, ELISpot). Format: in vivo. The following applies: hu-BLT mice. The protocol:
Humanized BLT mice (hu-BLT; human-bone marrow/liver/thymus) were fed with, AJ2 (5×10^9 CFU/mice, every 2 days, Oral administration), WIN 55,212-2 (2 mg/kg, every 2 days, IP) and/or IL-15 (5 μg/mice, every 2 days, IP). After 3 weeks of treatment, immune cells were collected from peripheral blood, bone marrow and spleen, and CD3+ T cells were isolated from splenocytes with EasySep™ Human CD3 positive selection kit II (StemCell Tech.). PBMCs (0.5×10^6 cells) obtained from the peripheral blood were treated with IL-2 (1000 U/ml) and/or anti-CD16 antibody (BioLegend) (3 μg/ml) for 3 days, after which the cells were counted and different numbers of E:T ratios were used for the assessment of cytotoxicity using 4-hr Chromium release assay (FIG. 1A and FIG. 1B). The percentage specific cytotoxicity was calculated using the following formula (% cytotoxicity=(Experimental cpm/spontaneous cpm)/(total cpm−spontaneous cpm)) and the lytic unit 30 (Lu30/10^6) was calculated by using the inverse of the number of effector cells needed to lyse 30% of tumor target cells×100. Killing per % NK cells was determined by dividing the total Lytic unit 30 by the percentage of NK cells in each sample (FIG. 1A and FIG. 1B). PBMCs (0.5×10^6 cells) obtained from the blood were treated with IL-2 (1000 U/ml) and/or anti-CD16 antibody (BioLegend) (3 μg/ml) for 24 hours, after which the supernatants were collected to measure IFN-g secretion using ELISA (BioLegend, San Diego) (FIG. 1C). ELISpot was used to determine the IFN-γ spots in PBMC (FIG. 1D), bone marrow (FIG. 1E), spleen (FIG. 1F) and CD3+ T cells (FIG. 1G).
Humanized BLT mice (hu-BLT; human-bone marrow/liver/thymus) were fed with, AJ2 (5×10^9 CFU/mice, every 2 days, Oral administration), WIN 55,212-2 (2 mg/kg, every 2 days, IP) and/or IL-15 (5 μg/mice, every 2 days, IP). After 3 weeks of treatment, immune cells were collected from peripheral blood, bone marrow and spleen, and CD3+ T cells were isolated from splenocytes with EasySep™ Human CD3 positive selection kit II (StemCell Tech.). PBMCs (0.5×10^6 cells) obtained from the peripheral blood were treated with IL-2 (1000 U/ml) and/or anti-CD16 antibody (BioLegend) (3 μg/ml) for 3 days, after which the cells were counted and different numbers of E:T ratios were used for the assessment of cytotoxicity using 4-hr Chromium release assay (FIG. 6A and FIG. 6B). The percentage specific cytotoxicity was calculated using the following formula (% cytotoxicity=(Experimental cpm/spontaneous cpm)/(total cpm−spontaneous cpm)) and the lytic unit 30 (Lu30/10^6) was calculated by using the inverse of the number of effector cells needed to lyse 30% of tumor target cells×100. Killing per % NK cells was determined by dividing the total Lytic unit 30 by the percentage of NK cells in each sample (FIG. 6A and FIG. 6B). PBMCs (0.5×10^6 cells) obtained from the blood were treated with IL-2 (1000 U/ml) and/or anti-CD16 antibody (BioLegend) (3 μg/ml) for 24 hours, after which the supernatants were collected to measure IFN-g secretion using ELISA (BioLegend, San Diego) (FIG. 6C). ELISpot was used to determine the IFN-γ spots in PBMC (FIG. 6D), bone marrow (FIG. 6E), spleen (FIG. 6F) and CD3+ T cells (FIG. 6G).
A general note: In an ELISA, binding on a coated surface is turned into a signal by an enzyme label.

In data set [7] the test system is MP2 tumor cells. In words: Cell count of viable cells (Trypan Blue, light microscope). The following applies: different concentrations of WIN 55,212-2, 24-48 hours. The class given is cell-based, human.
Description: (§4) The number of viable cells was counted under light microscope using Trypan Blue staining. Compiled data from three experiments performed is shown.
as §1

Data set [8] concerns PL-12 tumor cells. The description is as above. Format: cell-based, human. The following applies: different concentrations of WIN 55,212-2, 24-48 hours.
Description: as §4, §1

[9] abbreviates: WIN 55,212-2 2 mg/kg IP every 2 days, 3 weeks.

`CS(=O)(=O)O.Cc1c(C(=O)c2cccc3ccccc23)c2cccc3c2n1[C@H](CN1CCOCC1)CO3` [WIN 55,212-2, (R)-(+)-[2,3-Dihydro-5-methyl-3-(4-morpholinylmethyl)pyrrolo[1,2,3-de]-1,4-benzoxazin-6-yl]-1-naphthalenylmethanone mesylate]: the “percentages of dead cells (PI staining)” value in the data set with MP2 tumor cells [1] is listed as “approximately 30%”. Moreover, the “decrease in cell numbers” value with OSCCs [2] was 10-25%. Besides, in the data set on MP2 tumor cells [3] (48 h, 25-100 μM), the “cell surface expression of CD44” value is listed as “Decreased cell surface expression”, the “cell surface expression of CD54” value is “decreased the expression”, the “cell surface expression of MHC class I” value is given as “decreased on MP2 tumor cells” and the “cell surface expression of PD-L1” value is “decreased in MP2 tumor cells”. Further, the “extent of decrease in all surface receptor expressions, MP2 compared with PL-12” value with MP2 tumor cells [3] (after WIN 55,212-2 treatments) is reported as “significantly greater”. Further, the morphology and viability result in the data set with OSCCs [4] (50 μM or higher concentrations of WIN 55,212-2, 24 h) is “some of the OSCCs still remained viable but others rounded up and detached and were not viable”. Further, the morphology and viability entry with OSCCs [4] (low concentrations of WIN 55,212-2, 24 h) was “remained viable”. The morphology and attachment entry with OSCSCs was “became detached from the culture plates”. In the data set on MP2 tumor cells [5], the morphology and viability result is “largely lost their shape and morphology”. For the same compound, in the data set on PL-12 tumor cells [6], the morphology and viability entry is “maintained their morphology and remained viable”. Moreover, in the data set with IFN-γ secretion (setting [9]), the “IFN-γ immune-spots (ELISpot) in PBMCs” value is recorded as “augmented”, the “IFN-γ immune-spots (ELISpot) in bone marrow” value was “augmented”, the “IFN-γ immune-spots (ELISpot) in purified CD3+ T cells” value is listed as “augmented” and the “IFN-γ immune-spots (ELISpot) in spleen” value was “augmented”. Also, the “IFN-γ secretion (ELISA, PBMCs)” value in the data set on IFN-γ secretion (every 2 days for 3 weeks, WIN 55,212-2 2 mg/kg IP, IL-15 5 μg/mice IP) is reported as “augmented IFN-γ secretion”. Moreover, the “decreased numbers of viable cells” value in the data set on MP2 tumor cells [7] is given as 60-85%. Besides, in the data set on PL-12 tumor cells [8], the “decreased numbers of viable cells” value is recorded as 50-70%.
